Key:
human TLR2 = target: T1, human TLR2 (Homo sapiens, UniProt O60603); experiment: TLR2 reporter assay (HEK-293-TLR, SEAP); assay type: cell-based
T1 construct: host or cells: recombinant HEK-293-TLR cell lines (hTLR2, NFkB-SEAP reporter)
Experimental: Samples and controls were tested in duplicate on recombinant HEK-293-TLR cell lines using a cell reporter assay at Invivogen using their standard assay conditions. These cell lines functionally over-express human TLR2 protein as well as a reporter gene which is a secreted alkaline phosphatase (SEAP). The production of this reporter gene is driven by an NFkB inducible promoter. The TLR reporter cell lines activation results are given as optical density values (OD). 20 μl of each test article were used to stimulate the hTLR2 reporter cell lines in a 200 μl of final reaction volume. Samples were tested in duplicate, with at least two concentrations tested—20 uM and 10 uM.
Compounds were tested using a TLR2 reporter assay (see general methods) that measured for stimulation of the TLR2 receptor. Stimulatory effect was measured as an increase in optical density (OD) due to release of secreted alkaline phosphatase (SEAP) and is shown in table 4: […]

[1] = test system: E. coli, S. salivarius, L. casei, B. longum or M. luteus; experiment: Direct antibacterial activity, summary over all strains tested; assay type: cell-based; conditions: against the bacterial strains tested (Table 1)
Experimental: The bioactivity of macrolide compounds against 4 strains of common gut bacteria (Escherichia coli, Streptococcus salivarius subsp. salivarius, Lactobacillus casei and Bifidobacterium longum subsp. infantis) and common mammalian skin isolate Micrococcus luteus, was assessed using the Minimum Inhibitory Concentration (MIC) assay. Bacterial strains were purchased from DSMZ (Brunswick, Germany) except M. luteus which was obtained from NCIMB, and stored in 20% glycerol at −80° C. Stock solutions (100% DMSO) of positive controls (azithromycin and erythromycin), and of test compounds 1 and 2 were diluted in broth to working stock concentrations of 256 μg/ml (final assay testing concentration range 128 μg/ml to 0.00391 μg/ml). Stock solutions of all other compounds were diluted in broth to working stock concentrations of 128 μg/ml (final assay testing concentration range 64 μg/ml to 0.00195 μg/ml). Bacterial strains were cultivated in appropriate broth in an anaerobic chamber at 37° C., except for M. luteus which was incubated aerobically at 37° C. 18 h cultures were diluted in broth to an OD595 of 0.1 and then further diluted 1:10. In 96-well plates, in duplicate, 200 μl working stock of test compound was transferred to well 1 and serially diluted (1:2) in broth. 100 μl bacterial suspension was aliquoted into each well and mixed thoroughly. Appropriate sterility controls were included and plates were incubated in an anaerobic chamber, or aerobically (M. luteus) at 37° C. for 18 h. The MIC was determined to be the concentration of test compound in the first well with no visible growth.

[2] = test system: Monocytes differentiated into macrophages; experiment: CD80 expression on monocytes differentiated into macrophages; assay type: cell-based, human; conditions: 24 h
Experimental: (§1) Human peripheral blood mononuclear cells (PBMCs) were purified from healthy donors with Ficoll-Paque density centrifugation. Cells were cultured in complete RPMI-1640 medium (Invitrogen) supplemented with 25 mM HEPES, L-glutamine, Sodium pyruvate (Sigma), 10% fetal bovine serum, 100 μg/mL penicillin and 100 μg/mL streptomycin (Hyclone). Cells were stimulated for 24 h (study 1-4) or 48 h to 1 week (study 5) in 37° C., 5% CO2 with increasing concentrations of compound 1 and 2 in tissue culture plates. The cells were removed from the plate, washed in PBS and analysed for expression of cell specific surface markers and MHC class I with flow cytometry using monoclonal antibodies from BD Pharmingen and a FACS Canto II flow cytometer.

[3] = test system: peripheral blood mononuclear cells (PBMC); experiment: Marker expression on PBMC by flow cytometry; assay type: cell-based, human; conditions: 24 h
Experimental: Human peripheral blood mononuclear cells (PBMCs) were purified from healthy donors with Ficoll-Paque density centrifugation. Cells were cultured in complete RPMI-1640 media (Invitrogen) supplemented with 25 mM HEPES, L-glutamine, Sodium pyruvate (Sigma), 10% fetal bovine serum, 100 μg/mL penicillin and 100 μg/mL streptomycin (Hyclone) for 24-72 hours in 37° C., 5% CO2 and stimulated with and increasing concentrations of compound 1 and 2. Cells were then washed in PBS and stained with monoclonal antibodies specific for cell surface markers (BD Pharmingen) and analysed with flow cytomtetry using a BD FACS Canto II flow cytometer. All samples were tested in duplicates.
as §1

[4] = test system: PBMCs from CMV infected donors; experiment: IFN-gamma secretion from PBMCs of CMV infected donors with CMV antigen (cytometric bead assay); assay type: cell-based, human; conditions: 3 days
Text: FIG. 9: Interferon-gamma secretion (as measured by cytometric bead assay) from PBMCs (from a CMV+ donor) grown with CMV peptides in the presence or absence of compound 1 or A for […].
Study 8: PBMCs from CMV infected donors cultured in the presence of CMV antigen where either untreated or exposed to compound 1 or compound 2 for 3 days.

T1 sequence (O60603 21-784): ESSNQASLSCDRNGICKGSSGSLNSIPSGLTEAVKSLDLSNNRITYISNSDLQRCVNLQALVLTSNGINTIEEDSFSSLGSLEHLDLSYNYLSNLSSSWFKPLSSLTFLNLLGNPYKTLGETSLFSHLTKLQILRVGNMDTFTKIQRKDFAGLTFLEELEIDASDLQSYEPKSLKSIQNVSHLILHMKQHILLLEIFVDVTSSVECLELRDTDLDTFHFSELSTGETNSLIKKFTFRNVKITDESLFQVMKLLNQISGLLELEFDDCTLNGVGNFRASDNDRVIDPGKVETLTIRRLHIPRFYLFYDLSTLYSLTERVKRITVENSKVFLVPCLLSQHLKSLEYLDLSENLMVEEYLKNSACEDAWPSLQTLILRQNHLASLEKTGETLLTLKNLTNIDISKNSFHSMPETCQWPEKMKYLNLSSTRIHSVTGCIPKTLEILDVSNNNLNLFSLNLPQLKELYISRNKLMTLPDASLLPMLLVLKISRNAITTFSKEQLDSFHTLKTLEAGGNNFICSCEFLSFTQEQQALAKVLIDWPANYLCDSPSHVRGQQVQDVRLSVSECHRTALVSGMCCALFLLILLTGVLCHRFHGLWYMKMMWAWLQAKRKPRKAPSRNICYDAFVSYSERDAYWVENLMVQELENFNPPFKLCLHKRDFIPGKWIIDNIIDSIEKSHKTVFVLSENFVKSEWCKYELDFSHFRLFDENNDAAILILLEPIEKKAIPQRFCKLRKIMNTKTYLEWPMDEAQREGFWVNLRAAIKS

CC[C@H]1OC(=O)[C@H](C)[C@@H](O[C@H]2C[C@@H](N(C)C)[C@H](O)[C@@H](C)O2)[C@H](C)[C@@H](O)[C@](C)(O)C[C@@H](C)CN(C)[C@H](C)[C@@H](O)[C@]1(C)O [Compound 1] was tested, and the “OD after addition of 5 μM test article” value (human TLR2; 5 μM, SEAP reporter optical density) was 0.111, the “OD after addition of 10 μM test article” value (human TLR2; 10 μM, SEAP reporter optical density) was 0.202 and the “OD after addition of 20 μM test article” value (human TLR2; 20 μM, SEAP reporter optical density) was 0.458. The “concentrations at which TLR2 was stimulated (down to)” value (human TLR2; lowest stimulating concentration tested) was ≥ 5 µM, the antibacterial activity [1] was “no antibacterial activity” and the CD80 on macrophages [2] was “upregulated”. For the same compound, the “activation marker CD69 on B cells” value ([3]; 1 μM) was “upregulated”, the “activation marker CD69 on CD4+ T cells” value ([3]; 1 μM) was “upregulated” and the “MHC class I (HLA-ABC) on B-cells” value [3] was “upregulation”. The “MHC class I (HLA-ABC) on T-cells” value [3] was “upregulation”, the “MHC class II (HLA-DR) on monocytes” value [3] was “upregulation” and the “co-stimulatory molecule CD80 on monocytes” value [3] was “upregulation”. The “IFN-gamma secretion, PBMCs with CMV antigen” value [4] was “induced secretion of high levels of IFN-gamma”.

Source: patent publication US11059845B2, “Immune stimulating macrolides” (ISR IMMUNE SYSTEM REGULATION HOLDING AB (PUBL), priority 2017, dated 2021)
